Experimental findings from ChEMBL document CHEMBL5584297, “Cytotoxic Peptaibols from Trichoderma strigosum” (J Nat Prod, 2024) are described below.

Calls of active or inactive are those of the source. The rule behind the calls is not given here. Square brackets hold non-standard residues; d marks the D form. Peptide text beside a SMILES is read from it. * marks the point of attachment. Leu(ol) = CC(C)C[C@H](N)CO; dIva = CC[C@@](C)(N)C(=O)O; Octanoyl = CCCCCCCC(=O)*; Aib = CC(C)(N)C(=O)O

In test [1] the test system is MDA-MB-231. The test can be described thus: Antiproliferative activity against human MDA-MB-231 cells assessed as reduction in cell viability incubated for 24 hrs by MTT assay. Format: functional, cell-based. The following applies: MDA-MB-231, 24 h. In general terms: Tetrazolium assays rely on reduction of a dye to a coloured formazan, in cell work by metabolically active cells.

In test [2] the test system is SNU-449. The test can be described thus: Antiproliferative activity against human SNU-449 cells assessed as reduction in cell viability incubated for 24 hrs by MTT assay. Format: functional, cell-based. As to conditions: SNU-449, 24 h.
In test [3] the test system is SK-OV-3. The test can be described thus: Antiproliferative activity against human SK-OV-3 cells assessed as reduction in cell viability incubated for 24 hrs by MTT assay. Format: functional, cell-based. As to conditions: SK-OV-3, 24 h.
In test [4] the test system is DU-145. The test can be described thus: Antiproliferative activity against human DU-145 cells assessed as reduction in cell viability incubated for 24 hrs by MTT assay. Format: functional, cell-based. The following applies: DU-145, 24 h.
The test system of test [5] is HCT-116. Put plainly: Antiproliferative activity against human HCT-116 cells assessed as reduction in cell viability incubated for 24 hrs by MTT assay. The following applies: HCT-116, 24 h. The format is functional, cell-based.
The subject of test [6] is Fusarium oxysporum. Put plainly: Antifungal activity against Fusarium oxysporum KCTC 16654. Format: functional, organism-based.
Test [7] has as its system Candida albicans. Put plainly: Antifungal activity against Candida albicans. Format: functional, organism-based.
The test system of test [8] is [Candida] auris. Put plainly: Antifungal activity against Candida auris. Format: functional, organism-based. As to conditions: Candidozyma auris.

By IC50 is commonly meant the concentration at which inhibition is half-maximal. Regarding `CC(=O)NC(C)(C)C(=O)N[C@@H](CO)C(=O)NC(C)(C)C(=O)NC(C)(C)C(=O)N[C@@H](CC(C)C)C(=O)N[C@@H](CCC(N)=O)C(=O)NC(C)(C)C(=O)NC(C)(C)C(=O)NC(C)(C)C(=O)N[C@@H](CO)C(=O)N[C@H](C(=O)NC(C)(C)C(=O)N1CCC[C@H]1C(=O)N[C@H](C(=O)NC(C)(C)C(=O)NC(C)(C)C(=O)N[C@@H](CCC(N)=O)C(=O)N[C@@H](CCC(N)=O)C(=O)N[C@H](CO)CC(C)C)C(C)C)C(C)C` (Ac-[Aib]S[Aib][Aib]LQ[Aib][Aib][Aib]SV[Aib]PV[Aib][Aib]QQ[Leu(ol)]), the IC50 in test [1] came to 80.2 µM; in test [2], 131 µM; in test [3] it was 41.1 µM; in test [4], 30.9 µM; in test [5] it was 32.8 µM. Further, the outcome in test [6], in test [7] and in test [8] was inactive.

For the molecule `CCCCCCCC(=O)NCC(=O)N[C@@H](C)C(=O)N[C@@H](CC(C)C)C(=O)NC(C)(C)C(=O)N[C@@H](C)C(=O)N[C@H](C(=O)N[C@H](CO)CC(C)C)[C@@H](C)CC` (Octanoyl-GAL[Aib]AI[Leu(ol)]), the IC50 was 17.6 µM in test [1]; more than 150 µM in test [2]; 18.7 µM in test [3]; 25.4 µM in test [4]; 27.4 µM in test [5]. Besides, the result in test [6], in test [7] and in test [8] was inactive.

Regarding `CCCCCCCC(=O)NCC(=O)N[C@@H](C)C(=O)N[C@@H](CC(C)C)C(=O)NC(C)(C)C(=O)N[C@@H](C)C(=O)N[C@@H](CC(C)C)C(=O)N[C@H](CO)CC(C)C` (Octanoyl-GAL[Aib]AL[Leu(ol)]), the IC50 in test [1] is 7.3 µM; in test [2] it was 17.3 µM; in test [3] it was 12.5 µM; in test [4] it was 13 µM; in test [5] it was 12 µM. For the same molecule, the result in test [6], in test [7] and in test [8] was inactive.

Consider `CCCCCCCC(=O)NCC(=O)N[C@@H](C)C(=O)N[C@@H](CC(C)C)C(=O)N[C@](C)(CC)C(=O)N[C@@H](C)C(=O)N[C@H](C(=O)N[C@H](CO)CC(C)C)[C@@H](C)CC` (Octanoyl-GAL[dIva]AI[Leu(ol)]), for which the IC50 in test [1] was found to be 4.5 µM; in test [2], 8.8 µM; in test [3], 6.3 µM; in test [4], 4.5 µM; in test [5], 8 µM. In addition, the outcome in test [6], in test [7] and in test [8] was inactive.

In the case of `CCCCCCCC(=O)NCC(=O)N[C@@H](C)C(=O)N[C@H](C(=O)NC(C)(C)C(=O)N[C@@H](C)C(=O)N[C@@H](CC(C)C)C(=O)N[C@H](CO)CC(C)C)C(C)C` (Octanoyl-GAV[Aib]AL[Leu(ol)]), the IC50 is 25.7 µM in test [1]; more than 150 µM in test [2]; 60.7 µM in test [3]; 31.8 µM in test [4]; more than 150 µM in test [5]. In addition, the result in test [6], in test [7] and in test [8] was inactive.
